This test addresses T1, SIRT1 (Homo sapiens, UniProt Q96EB6).
T1 sequence (Q96EB6 1-747): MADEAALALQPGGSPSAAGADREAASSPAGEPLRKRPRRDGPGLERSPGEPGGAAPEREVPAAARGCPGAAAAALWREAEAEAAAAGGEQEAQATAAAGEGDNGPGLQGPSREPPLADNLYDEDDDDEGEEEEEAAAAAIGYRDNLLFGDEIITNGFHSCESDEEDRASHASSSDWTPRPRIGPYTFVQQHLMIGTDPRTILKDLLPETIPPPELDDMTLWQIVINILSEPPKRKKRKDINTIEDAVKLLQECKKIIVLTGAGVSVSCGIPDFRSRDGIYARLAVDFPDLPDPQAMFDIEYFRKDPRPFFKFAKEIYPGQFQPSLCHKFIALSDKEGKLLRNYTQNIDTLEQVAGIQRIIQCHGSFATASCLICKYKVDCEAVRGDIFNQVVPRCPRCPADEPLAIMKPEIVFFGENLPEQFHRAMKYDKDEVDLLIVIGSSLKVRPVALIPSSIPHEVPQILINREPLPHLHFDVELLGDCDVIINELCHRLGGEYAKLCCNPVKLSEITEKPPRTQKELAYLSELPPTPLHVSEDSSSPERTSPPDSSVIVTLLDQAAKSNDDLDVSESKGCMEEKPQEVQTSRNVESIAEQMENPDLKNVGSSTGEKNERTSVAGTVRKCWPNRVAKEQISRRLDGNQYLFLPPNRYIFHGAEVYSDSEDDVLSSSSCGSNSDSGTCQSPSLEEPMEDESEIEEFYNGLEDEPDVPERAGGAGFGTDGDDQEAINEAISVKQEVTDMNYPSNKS
Nature of the test: Mass spectrometry based SIRT1 deacetylase activation assay (acetylated p53-derived peptide substrate). The class given is biochemical.

[1] abbreviates: 0.5 μM peptide substrate, 120 μM βNAD+, 10 nM SIRT1, 25 minutes at 25° C.
[2] abbreviates: 0.5 μM peptide substrate, 120 μM βNAD+, 10 nM SIRT1, 25 min at 25° C.
The mark [3] stands for this setting: 0.5 μM peptide substrate, 120 μM βNAD+, 10 nM SIRT1, 25 min at 25° C., read-out: EC1.5.

Like-named read-outs stand apart in the source and are kept apart here. Where only a bound is given, the exact number is not on record here.

For the compound `O=C(Nc1nccs1)c1cncc2nc(-c3ccc(OC[C@@H](O)CO)cc3C(F)F)[nH]c12` [Compound 771], under setting [1], the EC1.5 entry is listed as “A (EC1.5<1.0 uM)” and the “Fold Act. (percent maximum fold activation)” value is on record as “A (Fold activation >200%)”.

With `O=C(Nc1nccs1)c1cccc2[nH]c(-c3ccc(CN4CCCC4)cc3C(F)(F)F)nc12` [Compound 828, 2-(4-(pyrrolidin-1-ylmethyl)-2-(trifluoromethyl)phenyl)-N-(thiazol-2-yl)-1H-benzo[d]imidazole-4-carboxamide], under setting [1], the EC1.5 entry is listed as “A (EC1.5<1.0 uM)” and the “Fold Act. (percent maximum fold activation)” value is given as “A (Fold activation >200%)”.

Turning to `O=C(Nc1ccc(CN2CCOCC2)cn1)c1cccc2[nH]c(-c3cc(F)ccc3C(F)(F)F)nc12` [Compound 624, 2-(5-fluoro-2-(trifluoromethyl)phenyl)-N-(5-(morpholinomethyl)pyridin-2-yl)-1H-benzo[d]imidazole-4-carboxamide], under setting [1], the EC1.5 result is listed as “B (EC1.5 1-25 uM)” and the “Fold Act. (percent maximum fold activation)” value is “A (Fold activation >200%)”.

Turning to `O=C(Nc1nccs1)c1cccc2[nH]c(-c3cccc(OC4CCNC4)c3)nc12` (stereo not shown) [Compound 462], under setting [2], the “Fold Act. (percent maximum fold activation)” value is “A (Fold activation >200%)”. For the same compound, the EC1.5 under setting [3] is less than 1000 nM.

Turning to `O=C(Nc1cccc(OC[C@H](O)CO)c1)c1cc(F)cc2[nH]c(-c3ccccc3C(F)F)nc12` [Compound 811, (R)-2-(2-(difluoromethyl)phenyl)-N-(3-(2,3-dihydroxypropoxy)phenyl)-6-fluoro-1H-benzo[d]imidazole-4-carboxamide], under setting [1], the EC1.5 result is “A (EC1.5<1.0 uM)” and the “Fold Act. (percent maximum fold activation)” value is listed as “A (Fold activation >200%)”.

Regarding `O=C(Nc1cccc(CN2CCOCC2)n1)c1cccc2[nH]c(-c3ccccc3F)nc12` [Compound 854], under setting [1], the EC1.5 result was “A (EC1.5<1.0 uM)” and the “Fold Act. (percent maximum fold activation)” value is recorded as “A (Fold activation >200%)”.

On to `O=C(Nc1ccc(OC[C@@H](O)CO)cc1)c1cccc2[nH]c(-c3cccc(N4CCCC4)c3)nc12` [Compound 788], for which, under setting [1], the EC1.5 result is reported as “A (EC1.5<1.0 uM)” and the “Fold Act. (percent maximum fold activation)” value was “A (Fold activation >200%)”.

Consider `O=C(Nc1ccccn1)c1cccc2[nH]c(-c3ccc(OC[C@@H](O)CO)cc3C(F)F)nc12` [Compound 596], for which the “Fold Act. (percent maximum fold activation)” value under setting [2] is recorded as “A (Fold activation >200%)”. In addition, the EC1.5 under setting [3] is less than 1000 nM.

In the case of `O=C(Nc1cccnc1)c1cccc2[nH]c(-c3ccccc3OC3CCNCC3)nc12` [Compound 539], the “Fold Act. (percent maximum fold activation)” value under setting [2] is on record as “A (Fold activation >200%)”. For the same compound, the EC1.5 under setting [3] was 1000 to 25000 nM.

As for `O=C(Nc1ccc(OCC(O)CO)cc1)c1cccc2[nH]c(-c3ccccc3C(F)(F)F)nc12` (stereo not shown) [Compound 492], the “Fold Act. (percent maximum fold activation)” value under setting [2] is given as “A (Fold activation >200%)”. For the same compound, the EC1.5 under setting [3] is less than 1000 nM.

`Cc1nc(N2CCOCC2)sc1-c1nc2c(C(=O)Nc3ccccn3)cccc2[nH]1` [Compound 412]: the “Fold Act. (percent maximum fold activation)” value under setting [2] was “A (Fold activation >200%)”. Besides, under setting [3], the EC1.5 was less than 1000 nM.

For `O=C(Nc1ccc(CN2CCOCC2)cn1)c1cccc2[nH]c(-c3ccccc3C(F)(F)F)nc12` [Compound 673], under setting [1], the EC1.5 entry was “A (EC1.5<1.0 uM)” and the “Fold Act. (percent maximum fold activation)” value is “A (Fold activation >200%)”.

In the case of `O=C(Nc1nccs1)c1cccc2[nH]c(-c3ccc(N4CC[C@H](F)C4)cc3C(F)(F)F)nc12` [Compound 606], under setting [1], the EC1.5 entry is reported as “A (EC1.5<1.0 uM)” and the “Fold Act. (percent maximum fold activation)” value was “A (Fold activation >200%)”.

In the case of `O=C(Nc1ccccc1OCC(O)CO)c1cccc2[nH]c(-c3ccc(F)cc3C(F)(F)F)nc12` (stereo not shown) [Compound 727], under setting [1], the EC1.5 result was “B (EC1.5 1-25 uM)” and the “Fold Act. (percent maximum fold activation)” value is reported as “A (Fold activation >200%)”.

As for `O=C(Nc1cccnc1)c1cccc2[nH]c(-c3ccc(OCCN4CCOCC4)cc3C(F)F)nc12` [Compound 724], under setting [1], the EC1.5 result is listed as “A (EC1.5<1.0 uM)” and the “Fold Act. (percent maximum fold activation)” value is “A (Fold activation >200%)”.

Regarding `O=C(Nc1ccccn1)c1cccc2[nH]c(-c3ccccc3OCCN3CCCC(F)(F)C3)nc12` [Compound 612], under setting [1], the EC1.5 entry was “C (EC1.5 >25 uM)” and the “Fold Act. (percent maximum fold activation)” value is “B (Fold Activation <200%)”.

With `O=C(Nc1ccc(CN2CCOCC2)cn1)c1cccc2[nH]c(-c3ccc(Cl)cc3C(F)(F)F)nc12` [Compound 676], under setting [1], the EC1.5 entry is reported as “A (EC1.5<1.0 uM)” and the “Fold Act. (percent maximum fold activation)” value is “A (Fold activation >200%)”.

Consider `O=C(Nc1nccs1)c1cccc2[nH]c(-c3ccnc(N4CCCC4)c3)nc12` [Compound 446], for which, under setting [2], the “Fold Act. (percent maximum fold activation)” value is “B (Fold Activation <200%)”. In addition, the EC1.5 under setting [3] was less than 1000 nM.

In the case of `O=C(NC1CCNCC1)c1cccc2[nH]c(-c3ccc(Cl)cc3C(F)(F)F)nc12` [Compound 453], the “Fold Act. (percent maximum fold activation)” value under setting [2] is listed as “B (Fold Activation <200%)”. For the same compound, the EC1.5 under setting [3] is greater than 25000 nM.

In the case of `O=C(Nc1ncc(CN2CCOCC2)s1)c1cccc2[nH]c(-c3ccccc3C(F)(F)F)nc12` [Compound 780, N-(5-(morpholinomethyl)thiazol-2-yl)-2-(2-(trifluoromethyl)phenyl)-1H-benzo[d]imidazole-4-carboxamide], under setting [1], the EC1.5 entry is recorded as “C (EC1.5 >25 uM)” and the “Fold Act. (percent maximum fold activation)” value is recorded as “B (Fold Activation <200%)”.

With `O=C(Nc1cccnn1)c1cccc2[nH]c(-c3ccc(Cl)cc3C(F)(F)F)nc12` [Compound 432], the “Fold Act. (percent maximum fold activation)” value under setting [2] is on record as “A (Fold activation >200%)”. For the same compound, under setting [3], the EC1.5 is less than 1000 nM.

`O=C(Nc1ccccn1)c1cccc2[nH]c(-c3cccc4c3OC(F)(F)O4)nc12` [Compound 496]: under setting [2], the “Fold Act. (percent maximum fold activation)” value is listed as “A (Fold activation >200%)”. Also, the EC1.5 under setting [3] is less than 1000 nM.

In the case of `O=C(Nc1ccccn1)c1cccc2[nH]c(-c3ccc(OC[C@H](O)CO)cc3C(F)(F)F)nc12` [Compound 744], under setting [1], the EC1.5 entry is recorded as “A (EC1.5<1.0 uM)” and the “Fold Act. (percent maximum fold activation)” value is “A (Fold activation >200%)”.

Take `Cc1cc(C)nc(NC(=O)c2cccc3[nH]c(-c4ccc(F)cc4C(F)(F)F)nc23)c1` [Compound 359]: the EC1.5 entry is “A (EC1.5<1.0 uM)” and the “Fold Act. (percent maximum fold activation)” value is listed as “A (Fold activation >200%)”.

For `O=C(Nc1nncs1)c1cccc2[nH]c(-c3cccc(C(F)(F)F)c3)nc12` [Compound 239], the EC1.5 result is “C (EC1.5 >25 uM)” and the “Fold Act. (percent maximum fold activation)” value is “B (Fold Activation <200%)”.

`O=C(Nc1ccccn1)c1cccc2[nH]c(-c3cc(F)ccc3C(F)F)nc12` [Compound 513]: the “Fold Act. (percent maximum fold activation)” value under setting [2] is “A (Fold activation >200%)”. Moreover, the EC1.5 under setting [3] is less than 1000 nM.

In the case of `O=C(Nc1ccccn1)c1cccc2[nH]c(-c3cc(CN4CCCC4)ccc3C(F)(F)F)nc12` [Compound 872, N-(pyridin-2-yl)-2-(5-(pyrrolidin-1-ylmethyl)-2-(trifluoromethyl)phenyl)-1H-benzo[d]imidazole-4-carboxamide], under setting [1], the EC1.5 result is “A (EC1.5<1.0 uM)” and the “Fold Act. (percent maximum fold activation)” value was “A (Fold activation >200%)”.

For `O=C(Nc1cccc(OC[C@H](O)CO)c1)c1cccc2[nH]c(-c3ccccc3F)nc12` [Compound 784], under setting [1], the EC1.5 entry is listed as “A (EC1.5<1.0 uM)” and the “Fold Act. (percent maximum fold activation)” value was “A (Fold activation >200%)”.

For the compound `O=C(Nc1nccs1)c1cncc2nc(-c3ccc(OC[C@H](O)CO)cc3C(F)F)[nH]c12` [Compound 808], under setting [1], the EC1.5 entry was “A (EC1.5<1.0 uM)” and the “Fold Act. (percent maximum fold activation)” value is reported as “A (Fold activation >200%)”.

For the compound `O=C(Nc1cccnc1)c1cc(N2CCOCC2)cc2[nH]c(-c3ccc(F)cc3C(F)(F)F)nc12` [Compound 691], under setting [1], the EC1.5 result is “A (EC1.5<1.0 uM)” and the “Fold Act. (percent maximum fold activation)” value was “A (Fold activation >200%)”.

With `O=C(Nc1cnccn1)c1cccc2[nH]c(-c3ccccc3)nc12` [Compound 201], the EC1.5 result was “B (EC1.5 1-25 uM)” and the “Fold Act. (percent maximum fold activation)” value is listed as “A (Fold activation >200%)”.

For the compound `O=C(Nc1cccnc1)c1cccc2[nH]c(-c3ccc(-c4nnn[nH]4)cc3)nc12` [Compound 349], the EC1.5 result is on record as “A (EC1.5<1.0 uM)” and the “Fold Act. (percent maximum fold activation)” value is given as “B (Fold Activation <200%)”.

For the compound `O=C(Nc1cccnc1)c1cccc2[nH]c(-c3ccc(Cl)cc3C(F)(F)F)nc12` [Compound 312], the EC1.5 entry is listed as “A (EC1.5<1.0 uM)” and the “Fold Act. (percent maximum fold activation)” value was “A (Fold activation >200%)”.

For the compound `FC(F)(F)c1ccccc1-c1nc2c(Nc3ccccn3)cccc2[nH]1` [Compound 582], under setting [2], the “Fold Act. (percent maximum fold activation)” value was “B (Fold Activation <200%)”. In addition, under setting [3], the EC1.5 is greater than 25000 nM.

Consider `O=C(NC1CCOC1=O)c1cccc2[nH]c(-c3ccccc3C(F)(F)F)nc12` (stereo not shown) [Compound 353], for which the EC1.5 result was “C (EC1.5 >25 uM)” and the “Fold Act. (percent maximum fold activation)” value is “B (Fold Activation <200%)”.

The record behind these values is patent publication US8846947B2, “Benzimidazoles and related analogs as sirtuin modulators” (GlaxoSmithKline LLC, priority 2008, dated 2014).
